Data reported in US20260193180A1, “AUTOPHAGY INDUCING COMPOUNDS AND USES THEREOF” (SAMSARA THERAPEUTICS INC., priority 2022, published 2026).
Structures can show the parent of a compound that is named as a salt. Where two headings read alike, the source gives them in different places.

Tests used:
[1] = system: Human osteosarcoma U2OS cells; test: Acidic vesicle formation (lysosome/autolysosome staining, LysoView 633 / LysoTracker Deep Red), stimulation of autophagy; type: cell-based; conditions: 10 μM, 24 hours, read-out: increase in acidic vesicle formation over the DMSO-treated control
Method: Lysosomes play a fundamental role in the autophagic pathway by fusing with autophagosomes and creating ‘autolysosomes’ in order to digest their contents. Stimulation of lysosome and autolysosome formation by a compound is indicative of a stimulation of autophagy. The ability of compounds to stimulate lysosome and autolysosome formation, and thus autophagy, in live cells was assessed via fluorescent microscopy using various fluorescent stains for labelling and tracking acidic organelles (including lysosomes and autolysosomes) such as: LysoView™ 650 (70059 and 70059-T, Biotium), LysoView™633 (70058 and 70058-T, Biotium) and LysoTracker™ Deep Red (L12492, ThermoFisher Scientific). The cellular phenotype was quantitatively assessed for the induction of acidic vesicle formation and compared to a non-treated control, thus providing a measure of the ability of the compound under investigation to stimulate autophagy.
Representative procedure using LysoView™633 dye or LysoTracker™ Deep Red dye: Human osteosarcoma U2OS cells (40,000 cells/well) were seeded in a 24 well glass bottom plate (Sensoplate, Greiner Bio-One) and were incubated overnight in a humidified atmosphere at 37° C. and 5% CO2. Cells were grown in DMEM (Gibco) supplemented with 10% Fetal Bovine Serum (FBS) and 100 units/ml penicillin and 100 μg/ml streptomycin (Invitrogen). After the attachment period, cells were treated with different compounds of interest (at various concentrations in DMSO) or DMSO (non-treated control) in cell culture medium and were incubated for 24 hours. Compound-containing medium was removed and cells were incubated with pre-warmed cell culture medium containing 1× LysoView™ 633 (70058 and 70058-T, Biotium) or 50 nM LysoTracker™ Deep Red (L12492, ThermoFisher Scientific) for 45 minutes at 37° C. Finally, cell nuclei were stained for 10 minutes using Hoechst 33342 (1 μg/mL) and then the medium was replaced with fresh medium. The 24 well plate was then fitted into a heated stage on the microscope and cells maintained at 37° C. Images were captured using appropriate filter set for Cy5 and DAPI detection with the EVOS M7000 Microscope (ThermoFisher Scientific). The cellular phenotype was visually assessed for the induction of acidic vesicle formation relative to the non-treated control; multiple images were acquired and analysed using ImageJ or Cell Profiler.

[2] = system: C57BL/6JRj mice injured by intra-nigral injections of alpha-synuclein and CBE; test: Mouse model of Parkinson's disease (intra-nigral alpha-synuclein protofibrils plus CBE); type: in vivo; conditions: 30 mg/kg per os on the first day, then 10 mg/kg per os once a day
Source text: This model (run by Neuro-Sys SAS, France) uses C57BL/6JRj mice injured by intra-nigral injections of a solution containing protofibrils of alpha-synuclein (α-syn, precisely quantified by automatic Western Blot) and combined with pharmacological inhibition of GBA by conduritol B epoxide (CBE), in aged mice. The model mimics the main pathologies of PD: loss of dopaminergic neurons in the substantia nigra, neuroinflammation, deficits in motor coordination and synucleinopathy (α-syn aggregation). Any substance with positive effects in this model may be useful as a new therapeutic agent for the treatment or prevention of PD.
• Type of animal: C57BL/6JRj (Male) • Age: 18 months old • Supplier: Janvier Labs • Animal number: 10 mice per group • Acclimation and clinical signs: Animals arrived on site 7 days (one week) before the experiment to allow optimal acclimation.
Overview: CBE was administered along with the test compounds, starting on the day of the stereotaxic injections of the α-syn oligomer preparation.
Test compounds at specific concentrations (see below) were administered per os (gavage or drinking water). • Test compound treatment: The test compounds were solubilized (vehicle=water), aliquoted and stored at −20° C. Aliquots were thawed overnight at 4° C. and given once a day. Treatment started on the day of the stereotaxic injections of α-syn preparation (Day 0). Treatment was administrated until the last day of the experiment (Day 28; =day of dissection). • CBE dose and administration: 50 mg/kg, Intraperitoneal (i.p.), twice a day. • CBE treatment: Administration of CBE (vehicle=saline [NaCl 0.9%] started on the day of the stereotaxic injections of α-syn preparation (Day 0). Treatment was administrated until the last day of the experiment (Day 28; =day of dissection), • Untreated control: vehicle (saline; i.p.) administered twice a day, • Stereotaxic injections of α-syn oligomers: Human α-syn peptide (stock at 69 μM in water at −20° C.) was reconstituted at 50 μM in NaCl, 0.9% (final concentration). All mice in compound treated groups were subjected to surgery and received 2.5 μL of α-syn solution. Mice were anesthetized by isoflurane (4%, for induction), in an induction chamber coupled with a vaporizer and to an oxygen concentrator. Mice were placed on the stereotaxic frame. Anesthesia was maintained by isoflurane (2%) with a face mask coupled to the isoflurane vaporizer and oxygen concentrator machine. The skull was exposed and holes were drilled. The α-syn preparation was bilaterally injected into the SNpc, at the following coordinates: A-P, −0.3 mm; M-L, +0.12 mm; D-V, −0.45 mm. Depth of anesthesia and rectal temperature were verified every 5 minutes. After surgery, mice were allowed to recover before being placed back in the cage.
• i) Body mass • ii) Assessment of motor coordination: bar test and grid walking test • iii) Dopaminergic Tyrosine hydroxylase (TH)-positive neuron survival in the substantia nigra pars compacta (SNpc), i.e. a measure of the number of TH neurons in the SNpc • iv) α-syn area in TH positive neurons (a measure of the degree of aggregation of α-syn in TH positive neurons, in the SNpc)
• Overall: For overall evaluation and body mass, mice were observed daily, and body mass was monitored prior to drug administration. • Assessment of motor coordination: bar test.
In the third week (Week 3) post-surgery, motor coordination of the mice was assessed with the bar test. The principle of the test is based on the capacity of the mice to cross a horizontal bar connected to a platform (18 mm of diameter, 60 cm long). The test requires good coordination between front and hindlimbs, and good balance. Mice are placed at one extremity of the bar and need to reach a platform located at the other side of the bar. Motor coordination was studied after two training sessions, one and two days before the test. Three sessions were recorded by a video camera system. […]

[3] = system: U2OS cell line stabling expressing RFP-eGFP-hLC3b; test: Tandem reporter assay (autophagic flux), RFP-only puncta (autolysosomes); type: cell-based; conditions: Homo sapiens, read-out: Activity (Autolysosome % DMSO activity)
Method: Selected compounds of this invention were also assessed for their ability to stimulate autophagy using a U2OS cell line stabling expressing RFP-eGFP-hLC3b (a tandem reporter cell line). This assay is further described in WO 2023/089074.
LC3b is a protein found in the membrane of autophagosomes which has been used to generate genetic reporters of autophagy in cells. In these systems a tandem fusion of LC3b is engineered with two fluorescent proteins of different wavelengths: one which is acid sensitive (for example eGFP, which fluoresces green) and the other which is acid insensitive (for example RFP, which fluoresces red). Cells expressing RFP-eGFP-hLC3b can be examined using fluorescent microscopy: the autophagosomes present will fluoresce in both channels (either yellow in an overlay of both channels or puncta that are present in both the individual red and green channels) but the autolysosomes present will fluoresce in the RFP (red) channel only. Using a fluorescent microscope, the number of autophagosomes and autolysosomes can be counted, allowing for the monitoring of both the induction of autophagy (total puncta count) and the rate of autophagic flux (ratio of red-only to red-and-green puncta). The influence of small molecules on autophagy induction and flux can be assessed using this system by comparison to a non-treated control.
Representative Procedure: Human osteosarcoma U20S cells stably expressing RFP-eGFP-hLC3b were seeded (10,000 cells/well) into a 96-well glass-bottom plate (Cell Carrier Ultra, Perkin Elmer) in DMEM Glutamax media (Gibco) supplemented with 10% Fetal Bovine Serum (FBS) and antibiotics (100 μg/ml penicillin, 100 μg/ml streptomycin, Invitrogen), then incubated overnight in a humified atmosphere at 37° C. and 5% CO2. The cells were then treated with the compounds of interest, dissolved in DMSO, in a duplicated 5- or 10-point dose-response. 8 wells were treated with an equivalent volume of DMSO, 4 with 0.3 μM torin-1 as a positive control (MCE) and 4 wells with 0.4 μM torin-1 plus 0.2 μM bafilomycin (MCE) as a control for flux inhibition. The cells were returned to the incubator and the treatment continued for 24 hours. After treatment, the media was aspirated off and the cells fixed with a solution of 4% formaldehyde+1% glutaraldehyde (Sigma) in dPBS (plus magnesium and calcium, Gibco). Fixation was allowed to proceed for 15 minutes at room temperature then the fixative solution discarded and replaced with PBS (Gibco) plus Hoescht 33342 (1 μg/ml, Sigma). After 30 minutes the plates were imaged on an Opera Phenix confocal microscope (Perkin-Elmer) using a 40× water objective, collecting using DAPI, mCherry and GFP channels. Cells were detected based upon the staining of their nuclei with DAPI using the Harmony image analysis software (Perkin-Elmer) and the number of autophagosomes (GFP and RFP puncta) and autolysosomes (RFP only puncta) per cell were counted using the spot picking function within the software.

CCOc1ccc(CN2CC[C@H](CN)C2)cc1Cl.Cl [Compound 23, (R)-(1-(3-chloro-4-ethoxybenzyl)pyrrolidin-3-yl) methanamine hydrochloride]
activation at 10 µM [1]: ≥ 25%
bar test: decrease in the mean time required to cross the bar compared to the α-syn/CBE injured group ([2]; week 3): 11%
bar test: reduction in the mean number of steps required to cross the bar compared to the α-syn/CBE injured group ([2]; week 3): 3%
bar test: reduction in the number of misplaced steps (failed strides) compared to the α-syn/CBE injured group ([2]; week 3): 39%
decrease in the aggregation of α-syn in TH neurons (α-syn area) compared to the α-syn/CBE injured group ([2]; week 4): 16%
grid walking test: increase in the total distance travelled during the test ([2]; week 4): 14%
grid walking test: reduction in the mean number of failures per meter (number of missed steps) ([2]; week 4): 14%
increase in the number of dopaminergic TH positive neurons in the SNpc compared to the α-syn/CBE injured group ([2]; week 4): 31%

CCOc1ccc(CCN2CC[C@@H](N)C2)cc1F [Compound 88, (R)-1-[2-(4-ethoxy-3-fluorophenyl)ethyl]-3-pyrrolidinylamine hydrochloride]
activity at 1.25 µM ([3]; average of two runs): 150 to 200%

COCCOc1ccc(CCN2CCC[C@@H](N)C2)cc1Cl [Compound 89, (R)-1-{2-[3-chloro-4-(2-methoxyethoxy)phenyl]ethyl}-3-piperidylamine hydrochloride]
activity at 1.25 µM ([3]; average of two runs): 150 to 200%

CCOc1c(Cl)cc(CN2CCC(N)CC2)cc1Cl [Compound 90, 1-[(3,5-Dichloro-4-ethoxyphenyl)methyl]-4-piperidylamine hydrochloride]
activity at 1.25 µM ([3]; average of two runs): 200 to 250%

NC1CCN(CCc2cc(Cl)c(OCC3CC3)c(Cl)c2)CC1 [Compound 91, 1-{2-[3,5-Dichloro-4-(cyclopropylmethoxy)phenyl]ethyl}-4-piperidylamine hydrochloride]
activity at 1.25 µM ([3]; one run): 150 to 200%

CCOc1ccc(CN2CCC[C@H](N)C2)cc1Cl [Compound 92, (S)-1-[(3-chloro-4-ethoxyphenyl)methyl]-3-piperidylamine hydrochloride]
activity at 0.5 µM ([3]; 0.5 μM, average of two runs): 150 to 200%

CCOc1ccc(CN2CCC[C@@H](N)C2)cc1Cl [Compound 93, (R)-1-[(3-chloro-4-ethoxyphenyl)methyl]-3-piperidylamine hydrochloride]
activity at 1.25 µM ([3]; average of two runs): 150 to 200%

COCCOc1c(Cl)cc(CN2CCC(N)CC2)cc1Cl [Compound 94, 1-{[3,5-dichloro-4-(2-methoxyethoxy)phenyl]methyl}-4-piperidylamine hydrochloride]
activity at 1.25 µM ([3]; average of two runs): 150 to 200%

COCCOc1ccc(CN2CCC(N)CC2)cc1Cl [Compound 95, 1-{[3-chloro-4-(2-methoxyethoxy)phenyl]methyl}-4-piperidylamine hydrochloride]
activity at 1.25 µM ([3]; average of two runs): 200 to 250%

N[C@H]1CCCN(Cc2cc(Cl)c(OCC3CC3)c(Cl)c2)C1 [Compound 96, (S)-1-{[3,5-dichloro-4-(cyclopropylmethoxy)phenyl]methyl}-3-piperidylamine hydrochloride]
activity at 1.25 µM ([3]; average of two runs): 200 to 250%

N[C@@H]1CCCN(Cc2cc(Cl)c(OCC3CC3)c(Cl)c2)C1 [Compound 97, (R)-1-{[3,5-dichloro-4-(cyclopropylmethoxy)phenyl]methyl}-3-piperidylamine hydrochloride]
activity at 1.25 µM ([3]; average of two runs): 150 to 200%

NC1CCN(Cc2cc(Cl)c(OCC3CC3)c(Cl)c2)CC1 [Compound 98, 1-{[3,5-dichloro-4-(cyclopropylmethoxy)phenyl]methyl}-4-piperidylamine hydrochloride]
activity at 1.25 µM ([3]; average of two runs): 150 to 200%

N[C@@H]1CCN(CCc2ccc(OCC3CC3)c(Cl)c2)C1 [Compound 99, (R)-1-{2-[3-chloro-4-(cyclopropylmethoxy)phenyl]ethyl}-3-pyrrolidinylamine hydrochloride]
activity at 1.25 µM ([3]; average of two runs): 150 to 200%

N[C@H]1CCN(CCc2ccc(OCC3CC3)c(Cl)c2)C1 [Compound 100, (S)-1-{2-[3-chloro-4-(cyclopropylmethoxy)phenyl]ethyl}-3-pyrrolidinylamine hydrochloride]
activity at 1.25 µM ([3]; average of two runs): 150 to 200%
